# Reference: patent US20200188469A1, “COMPOUNDS AND METHODS FOR INHIBITING CDK5 ALLEVIATE CARDIAC PHENOTYPES IN TIMOTHY SYNDROME AND RELATED CONDITIONS” (priority 2017, published 2020)
# Entries after “also recorded” stand apart in the source; their conditions may differ.
# Experiments:
# [1] = test system: Timothy syndrome cardiomyocytes; assay: Contraction assay with Matlab-based analysis and calcium imaging (Roscovitine analog and CDK inhibitor tests); type: cell-based, human; settings: two rounds: cardiomyocyte clusters 24 hours, intact monolayer 2 hours after treatment; 5 μM, (R)-CR8 1 or 2 μM
# Protocol: Two rounds of chemical tests were conducted to test the compounds. The first round of chemical test was conducted using Timothy syndrome cardiomyocyte clusters isolated from the monolayer cardiomyocytes to screen the compounds efficiently and to identify the positive compounds that could increase the spontaneous beating rate and decrease the contraction irregularity of the Timothy syndrome cardiomyocyte clusters (FIG. 1C).
# The working solution of each compound was made by diluting the stock solution in our cardiomyocyte culture media to a final concentration of 5 μM except for (R)-CR8, which was diluted to a final concentration of 1 or 2 μM. The contraction analysis was performed as reported previously (Yazawa et al., 2011). The movies were taken before the treatment, and 24 hours after the treatment of each compound from the Timothy syndrome cardiomyocyte clusters isolated from the monolayer cardiomyocytes for the first round of test. The movies were taken before the treatment, and 2 hours after the treatment of each positive compound on the intact monolayer Timothy syndrome cardiomyocytes for the second round of test. The contraction rate and the irregularity of each sample before and after treatment were compared using paired Student t-test.
# CDK5/p35 = target: T1, CDK5/p35 (Homo sapiens, UniProt Q00535); assay: In vitro kinase assay (ADP-Glo luminescence); type: biochemical; settings: wild-type II-III loop or C-term of Cav1.2 as substrates
# T1 construct: purchased Promega V3271
# T1 sequence (Q00535 whole entry): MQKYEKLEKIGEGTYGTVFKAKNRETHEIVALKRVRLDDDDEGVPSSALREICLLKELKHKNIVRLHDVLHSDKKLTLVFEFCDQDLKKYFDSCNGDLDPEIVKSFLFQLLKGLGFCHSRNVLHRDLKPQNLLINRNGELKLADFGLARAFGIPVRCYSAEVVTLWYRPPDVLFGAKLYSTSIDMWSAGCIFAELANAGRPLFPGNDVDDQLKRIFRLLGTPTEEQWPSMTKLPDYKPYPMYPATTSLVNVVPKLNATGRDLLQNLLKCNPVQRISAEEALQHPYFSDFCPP
# T1 sequence (Q15078 whole entry partner): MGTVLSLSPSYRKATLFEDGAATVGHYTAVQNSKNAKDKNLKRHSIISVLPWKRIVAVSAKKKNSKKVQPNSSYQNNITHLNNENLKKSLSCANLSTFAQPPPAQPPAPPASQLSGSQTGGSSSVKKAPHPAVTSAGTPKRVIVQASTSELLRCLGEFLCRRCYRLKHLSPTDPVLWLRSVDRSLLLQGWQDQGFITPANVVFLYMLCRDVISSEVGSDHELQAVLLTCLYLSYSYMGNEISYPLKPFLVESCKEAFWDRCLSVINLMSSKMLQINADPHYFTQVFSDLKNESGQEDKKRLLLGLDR
# Source text: To determine whether CDK5 phosphorylates Cav1.2, an in vitro kinase assay was designed. The wild-type II-III loop or the C-term of Cav1.2 was used as the substrates in this assay. Mutant II-III loop and mutant C-term constructs were generated with substitutions of serine/threonine to glycine or alanine in all CDK5 consensus sequences as negative controls. The phosphorylation of the substrates by CDK5 consumes ATP and produces ADP, which is then converted into luminescence by detection reagents in the assay (FIG. 3D). The luminescence signal was reduced when the CDK5 inhibitor, PHA-793887 was added to the reactions using wild-type II-III loop or C-term as the substrates. […]
# To prepare the substrates, the HEK 293T cells were transfected with the plasmid containing either the FLAG-tagged wild-type II-III loop or mutant II-III loop or wild-type C-terminus or mutant C-terminus using Lipofectamine 2000 (Thermo Fisher Scientific) following the manufacturer's protocol 24 hours after plating. […] A series of samples for a standard curve were prepared based on the manufacturer's instructions to determine the ATP-ADP conversion from the luminescence signals in every round of experiment. […] 20 ul of the samples from each tube was then transferred into a 96 well microplate and the luminescence was measured with the GloMax® 96 Microplate Luminometer (Promega).
# [2] = test system: TS cardiomyocytes derived from hiPSCs; settings: high dose; cited from earlier work
# Cav1.2 channels = assay: Voltage-clamp recordings of Ba2+ currents (voltage-dependent inactivation of Cav1.2); type: cell-based, human; settings: TS cardiomyocytes with CDK5 DN expression; 5 μM, 3 min
# Protocol: The Timothy syndrome and control iPSCs were differentiated into cardiomyocytes following a protocol reported previously (Song et al., 2015) and infected with the lentiviruses at day 19-21 or day 25-27 after cardiac differentiation. The cardiomyocytes were dissociated into single cells for whole-cell patch-clamp recordings at day 31. Whole-cell patch-clamp recordings of iPSC-derived cardiomyocytes were conducted using a MultiClap 700B patch-clamp amplifier (Molecular Devices) and an inverted microscope equipped with differential interface optics (Nikon, Ti-U). The glass pipettes were prepared using borosilicate glass (Sutter Instrument, BF150-110-10) using a micropipette puller (Sutter Instrument, Model P-97). Voltage-clamp measurements were conducted using an extracellular solution consisting of 5 mM BaCl2, 160 mM TEA and 10 mM HEPES (pH7.4 at 25° C.) and a pipette solution of 125 mM CsCl, 0.1 mM CaCl2, 10 mM EGTA, 1 mM MgCl2, 4 mM MgATP and 10 mM HEPES (pH 7.4 with CsOH at 25° C.). Two pulse protocols were used. One protocol was that cells were held at −90 mV and then depolarized to −10 mV for 400 ms at a rate of 0.1 Hz for the Ba^2+ current recordings. […] Recorded action potentials were analyzed using Clampfit 10.4 (Axon Instruments).
# [3] = test system: Cav1.2 with Timothy syndrome mutation; settings: heterologous over-expression system; cited from earlier work
# [4] = withdrawn from US market in 2000; cited from earlier work
compound,measurement,setting,value
CC[C@H](CO)Nc1nc(NCc2ccc(-c3ccccn3)cc2)c2ncn(C(C)C)c2n1 [CR8],"effects on Timothy syndrome cardiomyocytes (spontaneous beating rate, contraction irregularity)",[1],beneficial effects
COc1ccc(CNc2nc(NCc3ccc(OC)cc3)c3ncn(C4CCCCC4)c3n2)cc1 [Myoseverin B],"effects on Timothy syndrome cardiomyocytes (spontaneous beating rate, contraction irregularity)",[1],beneficial effects
CC(C)CC(=O)Nc1[nH]nc2c1CN(C(=O)C1CCN(C)CC1)C2(C)C [PHA-793887],"effects on Timothy syndrome cardiomyocytes (spontaneous beating rate, contraction irregularity)",[1],beneficial effects
same,luminescence signal (phosphorylation of substrate by CDK5),CDK5/p35,reduced; also recorded: blocked the phosphorylation
CC[C@H](CO)Nc1nc(NCc2ccccc2)c2ncn(C(C)C)c2n1 [Roscovitine],cardiac phenotypes of TS cardiomyocytes,[2],rescue the cardiac phenotypes
same,voltage-dependent inactivation of Cav1.2,Cav1.2 channels,did not further enhance; also recorded: did not significantly enhance
same,voltage-dependent inactivation of Cav1.2 with Timothy syndrome mutation,[3],enhance the voltage-dependent inactivation
COc1cc(N)c(Cl)cc1C(=O)NC1CCN(CCCOc2ccc(F)cc2)CC1OC (centres unmarked) [cisapride],side effect,[4],QT prolongation
